# Laboratory results reported in article PMC4286809, “Crystallographic and spectroscopic snapshots reveal a dehydrogenase in action” (Nature Communications, 2015).
# T1: 2-aminomuconate-6-semialdehyde dehydrogenase (AMSDH) (Pseudomonas fluorescens, UniProt Q83V33, R120A)
# T1 construct: gene nbaE
# T1 sequence (Q83V33 1-500 R120A): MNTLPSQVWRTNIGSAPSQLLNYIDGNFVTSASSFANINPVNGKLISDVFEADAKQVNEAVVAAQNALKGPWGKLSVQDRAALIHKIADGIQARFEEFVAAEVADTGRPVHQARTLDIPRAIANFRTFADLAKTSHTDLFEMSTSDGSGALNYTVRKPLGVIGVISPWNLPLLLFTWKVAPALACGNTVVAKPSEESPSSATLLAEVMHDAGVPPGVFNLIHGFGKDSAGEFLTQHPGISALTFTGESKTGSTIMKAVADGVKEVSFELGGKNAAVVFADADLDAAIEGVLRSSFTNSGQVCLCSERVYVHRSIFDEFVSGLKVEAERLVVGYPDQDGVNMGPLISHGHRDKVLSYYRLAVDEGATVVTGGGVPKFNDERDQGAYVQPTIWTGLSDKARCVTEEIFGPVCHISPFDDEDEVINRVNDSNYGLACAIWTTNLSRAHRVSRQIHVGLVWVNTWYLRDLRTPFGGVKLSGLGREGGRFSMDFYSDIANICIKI
# T2: 2-aminomuconate-6-semialdehyde dehydrogenase (AMSDH) (Pseudomonas fluorescens, UniProt Q83V33, E268A)
# T2 construct: gene nbaE
# T2 sequence (Q83V33 1-500 E268A): T1 sequence (Q83V33 1-500 R120A)
# T3: 2-aminomuconate-6-semialdehyde dehydrogenase (AMSDH) (Pseudomonas fluorescens, UniProt Q83V33)
# T3 construct: gene nbaE
# T3 sequence (Q83V33 1-500): T1 sequence (Q83V33 1-500 R120A)
# B1: 2-aminomuconate-6-semialdehyde dehydrogenase from Pseudomonas fluorescens, wild type (enzyme, UniProt Q83V33 1-500, looked up)
# chain: T1 sequence (Q83V33 1-500 R120A)
# notes: 2-aminomuconate-6-semialdehyde dehydrogenase (AMSDH), Pseudomonas fluorescens; also called AMSDH; wild-type AMSDH; source: E. coli overexpression system, purified
# Legend:
# [1] = target: T1, 2-aminomuconate-6-semialdehyde dehydrogenase (AMSDH); assay: steady-state kinetics (Km, lower bound); type: biochemical
# [2] = target: T2, 2-aminomuconate-6-semialdehyde dehydrogenase (AMSDH); assay: crystal structures of thiohemiacetal (4OU2) and thioacyl (4OUB) adducts; ESI mass spectrometry; absorption titration; type: binding
# [3] = target: T4, 2-aminomuconate-6-semialdehyde dehydrogenase (AMSDH) (Pseudomonas fluorescens, UniProt Q83V33, R464A); assay: steady-state kinetics; substrate inhibition Ki (Km […]); type: biochemical
# T4 construct: gene nbaE
# [4] = target: T3, 2-aminomuconate-6-semialdehyde dehydrogenase (AMSDH); assay: crystal structure of co-crystallized binary complex ([…] Å); type: binding
# [5] = target: the molecule itself; assay: crystal structure; wild-type AMSDH, ligand-free, with NAD+, with NAD+ and 2-AMS or 2-HMS, and as thioacyl intermediate; space group P212121; four polypeptides per asymmetric unit
# purified protein = substrate: O=C/C=C/C=C(/O)C(=O)O; assay: purified protein; type: biochemical, Pseudomonas fluorescens; conditions: NAD+ active site; bifurcated hydrogen bonds with Arg120 and Arg464; C6 becomes covalently bound to Cys302 in the later thioacyl intermediate (4NPI)
molecule,measurement,setting,value
"O=C/C=C/C=C(/O)C(=O)O [2-HMS, 2-hydroxymuconate-6-semialdehyde]",Km,[1],> 446 µM
same,crystal structures of thiohemiacetal (4OU2) and thioacyl (4OUB) adducts; ESI mas,[2],a continuous electron density between Cys302-SG and 2-HMS-C6 is observed
same,Ki,[3],~6 µM
"NC(=O)c1ccc[n+]([C@@H]2O[C@H](COP(=O)([O-])OP(=O)(O)OC[C@H]3O[C@@H](n4cnc5c(N)ncnc54)[C@H](O)[C@@H]3O)[C@@H](O)[C@H]2O)c1 [NAD+, NAD^+]",crystal structure of co-crystallized binary complex (2.00 Å),[4],"an NAD^+ molecule is present in an extended, anti-conformation in the amino-terminal, co-substrate-binding domain of each monomer"
B1,stoichiometry N,[5],4
same,Km,purified protein,10.4 ± 0.2 µM
